Source: publication PMC11377395 (Purinergic Signalling, 2024)

Molecular target: T1, A3 adenosine receptor (hA3AR) (Homo sapiens, UniProt P0DMS8)
T1 construct: gene ADORA3
T1 sequence (P0DMS8 1-318): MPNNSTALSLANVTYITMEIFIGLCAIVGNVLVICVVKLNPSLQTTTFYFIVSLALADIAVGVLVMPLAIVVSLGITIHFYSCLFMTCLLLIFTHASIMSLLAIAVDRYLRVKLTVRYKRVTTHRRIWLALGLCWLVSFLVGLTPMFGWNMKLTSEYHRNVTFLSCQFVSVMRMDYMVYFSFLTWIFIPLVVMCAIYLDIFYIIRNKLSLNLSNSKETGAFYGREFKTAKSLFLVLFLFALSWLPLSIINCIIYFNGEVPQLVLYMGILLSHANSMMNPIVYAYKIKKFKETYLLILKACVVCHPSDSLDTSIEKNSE
Assay: positive allosteric modulation of MRS5698 at […] in cAMP assay, CHO-hA3AR (also HL-60 cells)
Type: cell-based

Clc1ccc(Nc2nc3ccccc3c3[nH]c(C4CCCCC4)nc23)cc1Cl [LUF6000, N-(3,4-Dichloro-phenyl)-2-cyclohexyl-1 H-imidazo[4,5-c]quinolin-4-amine]
% Emax enhancement: 19 % Emax enhancement
